Measured values: patent US9315458B2, “Nitrogen-containing heterocyclic compound” (Takeda Pharmaceutical Company Limited, priority 2014, dated 2016)
pEC50: −log10 of the molar value.

Biological target: T1, human M1 receptor (hCHRM1) (Homo sapiens, UniProt P11229)
T1 construct: expressed in transfected cells
T1 sequence (P11229 1-460): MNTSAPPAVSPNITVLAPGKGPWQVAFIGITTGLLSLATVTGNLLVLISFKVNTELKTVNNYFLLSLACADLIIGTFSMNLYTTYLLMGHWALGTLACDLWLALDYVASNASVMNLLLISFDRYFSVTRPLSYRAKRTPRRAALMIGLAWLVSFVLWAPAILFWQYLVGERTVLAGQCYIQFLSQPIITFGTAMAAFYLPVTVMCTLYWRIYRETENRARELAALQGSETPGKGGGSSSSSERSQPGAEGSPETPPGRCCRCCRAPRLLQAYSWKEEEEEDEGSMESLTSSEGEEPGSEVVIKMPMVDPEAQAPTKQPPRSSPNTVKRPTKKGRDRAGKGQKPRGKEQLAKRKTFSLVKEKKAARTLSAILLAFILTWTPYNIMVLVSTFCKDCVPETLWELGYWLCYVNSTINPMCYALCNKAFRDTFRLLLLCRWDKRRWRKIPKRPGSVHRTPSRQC
Experiment: Measurement of M1 receptor positive allosteric modulator (M1PAM) activity, calcium fluorescence (FLIPRtetra) with acetylcholine at EC20
Assay type: cell-based
Conditions: for activity (%) at 10 μM: 10 μM test compound, 100% = acetylcholine 1 μM, 0% = DMSO, acetylcholine at EC20; for pEC50: inflection point of concentration-dependent curve, CHO-K1 cells expressing hCHRM1, acetylcholine at EC20 (final 0.6-0.8 nM), read-out: IP value
Procedure: The activity of a test compound in the presence of acetylcholine at EC20 concentration (final concentration 0.6-0.8 nM), which affords an action corresponding to about 20% of the maximum activity, was measured as PAM activity. The method is as follows. CHO-K1 cells stably expressing a human M1 receptor (hCHRM1) were plated on a 384-well black clear bottom plate (BD Falcon) at 5,000 cells/well, and cultured in an incubator at 37° C., 5% CO2 for 1 day. The medium in the cell plate was removed, and assay buffer A (Recording medium (DOJINDO LABORATORIES), 0.1% BSA (Wako Pure Chemical Industries, Ltd.), 2.5 μg/mL Fluo-4 AM (DOJINDO LABORATORIES), 0.08% Pluronic F127 (DOJINDO LABORATORIES), 1.25 mM probenecid (DOJINDO LABORATORIES)) containing a calcium indicator was added at 30 μL/well. The cells were left standing in the incubator at 37° C., 5% CO2 for 30 min, and further left standing at room temperature for 30 min. A test compound prepared by diluting with assay buffer B (HBSS (Invitrogen), 20 mM HEPES (Invitrogen), 0.1% BSA) containing 2.4-3.2 nM acetylcholine was added at 10 μL/well, and the fluorescence was measured by FLIPRtetra (Molecular Devices) for 1 min every 1 second. With the definition that the amount of change in the fluorescence on addition of acetylcholine (final concentration 1 μM) is 100% and that on addition of DMSO instead of a test compound is 0%, the activity (%) of the test compound was calculated, and the inflection point in the concentration-dependent curve of the test compound was calculated as IP values.

| SMILES | activity (%) at 10 μM | pEC50 |
| --- | --- | --- |
| O=C1c2cc(Cc3ccc(-n4cccn4)cc3)c(Cl)cc2CN1[C@H]1CCCC[C@@H]1O (racemic) [Example 2, rac-5-chloro-2-(trans-2-hydroxycyclohexyl)-6-(4-(1H-pyrazol-1-yl)benzyl)isoindolin-1-one] | 109% | 7.07 |
| COc1cc2c(cc1Cc1ccc(-n3cccn3)cc1)C(=O)N([C@H]1CCCC[C@@H]1O)C2 (racemic) [Example 3, rac-2-(trans-2-hydroxycyclohexyl)-5-methoxy-6-(4-(1H-pyrazol-1-yl)benzyl)isoindolin-1-one] | 106% | 7.82 |
| Cc1cc(-c2ccc(Cc3cc4c(cc3C)CN([C@H]3CCCC[C@@H]3O)C4=O)cn2)ccn1 (racemic) [Example 6, rac-2-(trans-2-hydroxycyclohexyl)-5-methyl-6-((2′-methyl-2,4′-bipyridin-5-yl)methyl)isoindolin-1-one] | 101% | 8.28 |
| O=C1c2cc(Cc3ccc(-n4cccn4)cc3)c(C(F)(F)F)c(Cl)c2CN1[C@H]1CCCC[C@@H]1O (racemic) [Example 10, rac-4-chloro-2-(trans-2-hydroxycyclohexyl)-6-(4-(1H-pyrazol-1-yl)benzyl)-5-(trifluoromethyl)isoindolin-1-one] | 106% | 7.18 |
| Cc1cc2c(cc1Cc1ccc(-n3cccn3)cc1)C(=O)N([C@H]1CCCC[C@@H]1O)C2 (racemic) [Example 32, rac-2-(trans-2-hydroxycyclohexyl)-5-methyl-6-(4-(1H-pyrazol-1-yl)benzyl)isoindolin-1-one] | 99% | 8.25 |

Continued by rising pEC50, values first:

| activity (%) at 10 μM | pEC50 | SMILES |
| --- | --- | --- |
| 111% | 6.12 | Cn1cc(-c2ccc(Cc3ccc4c(c3)C(=O)N([C@H]3CCCC[C@@H]3O)C4)cn2)cn1 (racemic) [Example 1, rac-2-(trans-2-hydroxycyclohexyl)-6-((6-(1-methyl-1H-pyrazol-4-yl)pyridin-3-yl)methyl)isoindolin-1-one] |
| 102% | 7.37 | O=C1c2cc(Cc3ccc(-n4cccn4)cc3)c(C3CC3)cc2CN1[C@H]1CCC[C@@H]1O (racemic) [Example 9, rac-5-cyclopropyl-2-(trans-2-hydroxycyclopentyl)-6-(4-(1H-pyrazol-1-yl)benzyl)isoindolin-1-one] |
| 105% | 7.89 | Cc1c(C#N)c(Cc2ccc(-n3cccn3)cc2)cc2c1CN([C@H]1CCCC[C@@H]1O)C2=O (racemic) [Example 11, rac-2-(trans-2-hydroxycyclohexyl)-4-methyl-1-oxo-6-(4-(1H-pyrazol-1-yl)benzyl)isoindoline-5-carbonitrile] |
| 102% | 8.02 | Cc1c(Cc2ccc(-n3cccn3)cc2)cc2c(c1C)CN([C@H]1CCCC[C@@H]1O)C2=O (racemic) [Example 29, rac-2-(trans-2-hydroxycyclohexyl)-4,5-dimethyl-6-(4-(1H-pyrazol-1-yl)benzyl)isoindolin-1-one] |
| 102% | 8.09 | Cc1cc2c(cc1Cc1ccc(-c3cn(C)nc3C)nc1)C(=O)N([C@H]1CCCC[C@@H]1O)C2 (racemic) [Example 5, rac-6-((6-(1,3-dimethyl-1H-pyrazol-4-yl)pyridin-3-yl)methyl)-2-(trans-2-hydroxycyclohexyl)-5-methylisoindolin-1-one] |
| 91% | 8.11 | COc1c(Cc2ccc(-n3cccn3)cc2)cc2c(c1Cl)CN([C@H]1CCCC[C@@H]1O)C2=O (racemic) [Example 12, rac-4-chloro-2-(trans-2-hydroxycyclohexyl)-5-methoxy-6-(4-(1H-pyrazol-1-yl)benzyl)isoindolin-1-one] |
| 106% | 8.32 | Cc1c(Cc2ccc(-c3cnn(C)c3)nc2)cc2c(c1C)CN([C@H]1CCCC[C@@H]1O)C2=O (racemic) [Example 28, rac-2-(trans-2-hydroxycyclohexyl)-4,5-dimethyl-6-((6-(1-methyl-1H-pyrazol-4-yl)pyridin-3-yl)methyl)isoindolin-1-one] |
